From patent US9278963B2, “Pyrimidine hydroxy amide compounds as histone deacetylase inhibitors” (Acetylon Pharmaceuticals, Inc., priority 2013, dated 2016) come the findings set out here.

Test [1] deals with BE(2)-C neuroblastoma cells. In words: Neuroblastoma maturation gene expression, BE(2)-C. It is filed as cell-based. Here is the method:
(§1) The following is a quick summary of the HDAC neuroblastoma maturation experiments. Adherent cells were plated into 12- or 24-well plates at 10^6 cells/well and allowed to adhere for 2-4 hours. Compounds were dispensed in DMSO at the indicated concentrations using an automated liquid handling system (Tecan D300) and incubated for the indicated times at 37° C. with 5% CO2. Cells were harvested and RNA extracted using the Qiagen RNeasy Mini Kit according to manufacture protocols. The RNA was quantified and relative expression levels were assessed using the Applied Biosystems TaqMan RNA-to-Ct Kit according to manufacture protocols using the indicated TaqMan probes.
(§2) The protocol for the maturation experiments was as follows. The day before the experiment, the cells were fed in the flask by doubling the media. The cells were then harvested by adding non-enzymatic cell dissociation media and incubating at 37° C. for 15 minutes. The cells were transferred to a 50 ml tube and pipet to create a single-cell suspension. The cells were washed with PBS buffer. The cells were then resuspended in complete media at 5×10^5 cells per ml. Next, 2 ml of cells were transferred to 24- or 12-well plates. The treatment compounds were then dispensed into each well using the D300 liquid handler. The cells were then incubated for the indicated time at 37° C. The cells were harvested by scraping the cells and transferring to a 2 ml tube. The cells were spun to form a pellet. Next, RNA was extracted using the Qiagen RNeasy Mini kit according to manufacture protocols. The RNA concentration was recorded. The relative RNA levels were assessed using the Applied Biosystems TaqMan RNA-to-Ct kit according to manufacture protocols using the indicated Taqman probes.

Test [2] deals with HDAC2 (Homo sapiens (Human), UniProt Q92769). The experiment in a line: HDAC enzyme assay, HDAC2. It is filed as biochemical.
Test [3] concerns SH-SY5Y neuroblastoma cells. The experiment in a line: Neuroblastoma cell cycle by flow cytometry, SH-SY5Y. The class given is cell-based. The conditions noted are these: 72 hours, 0.5, 2 and 5 μM (ATRA 1 μM). Here is the method: The following is a quick summary of the neuroblastoma cell cycle experiments. Adherent cells were plated into 12-well plates at 10^6 cells/well and allowed to adhere for 2-4 hours. Compounds were dispensed in DMSO at the indicated concentrations using an automated liquid handling system (Tecan D300) and incubated for the indicated times at 37° C. with 5% CO2. Cells were harvested with enzyme-free cell disassociation solution and washed with buffered saline. Cells were fixed overnight with 100% ethanol. Cell cycle was assessed by flow cytometry using the Molecular Probes FxCycle PI/RNase Staining Solution kit according to manufacture protocols.
The protocol for the cell cycle experiments was as follows. The day before the experiment, the cells were fed in the flask by doubling the media. Then, the cells were harvested by adding non-enzymatic cell dissociation media and incubating at 37° C. for 15 minutes. Next, the cells were transferred to a 50 ml tube and pipet to create a single-cell suspension. The cells were then washed with PBS buffer. Then, the cells were resuspended in complete media at 5×10^5 cells per ml. Next, 2 ml of cells were transferred to 12-well plates. Then, the treatment compounds were dispensed into each well using the D300 liquid handler. The cells were incubated for the indicated time at 37° C. Then, the cells were harvested by adding 500 μl enzyme free cell dissociation solution and incubating at 37° C. for 15 minutes. Next, the cells were spun into a pellet and then washed with PBS. Then, 500 μl 100% EtOH was added and incubated at 4° C. overnight. Then, the cells were washed 3× with PBS. The cells were then resuspended in […] FxCycle PI/RNase solution, and incubated for 2-4 hours at room temperature. Finally, the cells were assayed by flow cytometry.
SH-SY5Y neuroblastoma cells were treated with varying concentrations of either Compound X or Y, and/or ATRA (all trans retinoic acid). […] In addition, the fold change of p21 was also calculated. […] The HDACi/ATRA combination effects were modest, with little difference compared to single agents.
In general terms: In flow cytometry, cells or beads pass a laser one at a time.

For test [4], the system named is SH-SY5Y neuroblastoma cells. The experiment in a line: Neuroblastoma maturation gene expression, SH-SY5Y. The class given is cell-based. Conditions: 2 days, 3 μM. The procedure:
as §1
as §2, with “The treatment compounds were then dispensed into each well using the D300 liquid handler. The cells were then incubated for the indicated time at 37° C. The cells were harvested by scraping the cells and transferring to a 2 ml tube. The cells were spun to form a pellet. Next, RNA was extracted using the Qiagen RNeasy Mini kit according to manufacture protocols.” left out

For test [5], the system named is fetal globin (HbG). The experiment in a line: Fetal globin (HbG) induction in cultured CD34+ bone marrow cells. It is filed as cell-based, human. Conditions: 1 μM, treatment for 4 days.

Each structure is given as a SMILES string. pIC50: −log10 of the molar value.

Sequence of HDAC2 (Q92769 whole entry): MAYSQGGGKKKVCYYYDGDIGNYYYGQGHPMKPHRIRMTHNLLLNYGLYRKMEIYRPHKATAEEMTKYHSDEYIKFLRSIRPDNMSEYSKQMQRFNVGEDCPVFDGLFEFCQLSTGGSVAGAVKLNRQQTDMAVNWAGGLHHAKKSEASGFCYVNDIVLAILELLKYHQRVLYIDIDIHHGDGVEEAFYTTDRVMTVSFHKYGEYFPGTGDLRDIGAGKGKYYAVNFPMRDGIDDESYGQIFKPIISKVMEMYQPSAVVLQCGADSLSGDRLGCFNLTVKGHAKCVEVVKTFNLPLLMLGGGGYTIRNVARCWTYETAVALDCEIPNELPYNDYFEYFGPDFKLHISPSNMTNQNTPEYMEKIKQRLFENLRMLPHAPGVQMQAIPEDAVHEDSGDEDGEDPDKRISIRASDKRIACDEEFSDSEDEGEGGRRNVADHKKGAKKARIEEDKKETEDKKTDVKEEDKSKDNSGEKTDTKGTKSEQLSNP

For orientation: pIC50 means the negative decadic logarithm of the IC50, by convention in mol/L. As to `O=C(NO)c1cnc(NC2(c3ccccc3)CCN(C(=O)Nc3ccccc3)CC2)nc1` [Compound 001, N-hydroxy-2-((4-phenyl-1-(phenylcarbamoyl)piperidin-4-yl)amino)pyrimidine-5-carboxamide], the “fold change of genes associated with maturation” value in test [1] (2 days, 3 μM) is on record as “induces gene expression changes that are consistent with maturation”; in test [1] (48 hours, 0.5, 2 and 4 μM) it was “induces gene expression changes consistent with maturation at 4 μM, but not at 2 μM or less”; in test [4], “induces gene expression changes that are consistent with maturation”. Besides, in test [2], the negative logarithm of the IC50 (pIC50) is 7.47. In test [3], the “percent of the cell population in G2, S, G1 and Sub G1 phase” value is “induced a reduction in G1/G2 and increase in sub-G1”. The “increase in the percentage of HbG relative to other beta-like globin transcripts” value in test [5] worked out at 2 fold.
